Data published in publication PMC9774648, “Synthesis, Physicochemical Properties and Molecular Docking of New Benzothiazole Derivatives as Antimicrobial Agents Targeting DHPS Enzyme” (Antibiotics, 2022).
Values after ≈ are worked out from the molar mass of the structure shown. Read-outs that look alike come from different tables or passages of the source.

What was measured:
S. aureus (ATCC: 6538) = assay: Agar well diffusion, inhibition zone, S. aureus; format: cell-based; conditions: for zone of inhibition at 15000 µg/mL: Staphylococcus aureus, read-out: Diameter of the Inhibition Zone, S. aureus
S. mutans (ATCC: 25175) = assay: Agar well diffusion, inhibition zone, S. mutans; format: cell-based; conditions: for zone of inhibition at 15000 µg/mL: Streptococcus mutans, read-out: Diameter of the Inhibition Zone, S. mutans
[1] = test system: K. pneumonia (ATCC: 4415); assay: Agar well diffusion, inhibition zone, K. pneumonia; format: cell-based; conditions: agar well diffusion, 15 mg/mL, 100 μL per well, 37 °C 24 h, mean ± SD, triplicate
[2] = test system: P. aeruginosa (ATCC: 27853); assay: Agar well diffusion, inhibition zone, P. aeruginosa; format: cell-based; conditions: agar well diffusion, 15 mg/mL, 100 μL per well, 37 °C 24 h, mean ± SD, triplicate; for zone of inhibition at 15000 µg/mL: Pseudomonas aeruginosa, read-out: Diameter of the Inhibition Zone, P. aeruginosa
E. coli (ATCC: 3008) = assay: Agar well diffusion, inhibition zone, E. coli; format: cell-based; conditions: agar well diffusion, 15 mg/mL, 100 μL per well, 37 °C 24 h, mean ± SD, triplicate
S. aureus = assay: MIC, twofold serial dilution, S. aureus; format: cell-based; conditions: Staphylococcus aureus; twofold serial dilution in broth, 37 °C 16–20 h; read-out: The Minimum Inhibitory Concentration (MIC), S. aureus
Procedure: The new synthetic compounds, 6a–c, 12a–c, 14a–c, 16a–c and 19a–e, were tested in vitro to evaluate antibacterial activities against Gram-negative and Gram-positive bacteria, such as E. coli (ATCC: 3008), K. pneumonia (ATCC: 4415) and P. aeruginosa (ATCC: 27853), as an example for Gram-negative bacteria, as well as S. aureus (ATCC: 6538) and S. mutans (ATCC: 25175) for Gram-positive bacteria. The antifungal activities were evaluated also for the novel compounds in vitro against C. albicans (ATCC: 10231). The antibacterial and antifungal activities were determined by the agar-diffusion method using gentamicin, ampicillin and sulfadiazine, example of sulfa drug, as standard drugs against Gram-negative and Gram-positive, while nystatin was used as standard drug against the fungal strain. Table 1 summarizes the results for all tested compounds as the average diameter of inhibition zones of microbial growth around the discs in mm ± SD.
For each strain, three to five isolated colonies were selected from the fresh agar plate and were transferred into a tube containing 3–4 mL of sterile broth medium. The bacterial suspension was mixed well and incubated at 35–37 °C for 2–6 h. The turbidity of the bacterial suspension should be equal to or greater than the turbidity of a McFarland Standard 0.5. After that, 1 mg of the tested compound (antimicrobial agent) was dissolved in 1 mL DMSO and two-fold serial dilution was done using broth medium. A fixed volume of the prepared bacterial inoculum was added to each tube and incubated for at 37 °C 16–20 h. The MIC is defined as the lowest concentration of the antimicrobial agent that inhibits visible growth of the tested isolate as observed with the unaided eye.

[3] = molecular target: DHPS enzyme (dihydropteroate synthase) (Bacillus anthracis, UniProt Q81VW8); assay: biochemical; conditions: for inhibition at 0.1 µg/mL: 0.1 μg/mL; for inhibition at 0.1 µg/mL / inhibition at 1 µg/mL / inhibition at 10 µg/mL / inhibition at 100 µg/mL: read-out: Inhibition % against DHPS enzyme; for inhibition at 1 µg/mL: 1 μg/mL; for inhibition at 10 µg/mL: 10 μg/mL; for inhibition at 100 µg/mL: 100 μg/mL
[4] = test system: C. albicans (ATCC: 10231); assay: Agar well diffusion, inhibition zone, C. albicans; format: cell-based; conditions: 15 mg/mL, 100 μL per well, mean ± SD, triplicate; for zone of inhibition at 15000 µg/mL: Candida albicans, read-out: Diameter of the Inhibition Zone, C. albicans
S. mutans = assay: MIC, twofold serial dilution, S. mutans; format: cell-based; conditions: Streptococcus mutans, read-out: The Minimum Inhibitory Concentration (MIC), S. mutans
P. aeruginosa = assay: MIC, twofold serial dilution, P. aeruginosa; format: cell-based; conditions: Pseudomonas aeruginosa; twofold serial dilution in broth, 37 °C 16–20 h; read-out: The Minimum Inhibitory Concentration (MIC), P. aeruginosa
[5] = agar well diffusion, 15 mg/mL, 100 μL per well, 37 °C 24 h, mean ± SD, triplicate
[6] = twofold serial dilution in broth, 37 °C 16–20 h

DHPS enzyme (dihydropteroate synthase), sequence (Q81VW8 1-280): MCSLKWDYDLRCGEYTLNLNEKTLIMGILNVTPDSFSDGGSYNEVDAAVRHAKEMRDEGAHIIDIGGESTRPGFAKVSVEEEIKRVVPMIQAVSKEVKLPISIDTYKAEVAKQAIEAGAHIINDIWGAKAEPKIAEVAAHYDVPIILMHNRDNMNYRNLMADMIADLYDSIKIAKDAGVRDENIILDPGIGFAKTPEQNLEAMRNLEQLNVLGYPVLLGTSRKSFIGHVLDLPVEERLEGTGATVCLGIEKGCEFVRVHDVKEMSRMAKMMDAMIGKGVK

| SMILES | zone of inhibition at 15000 µg/mL (S. aureus (ATCC: 6538); [5]) | Diameter of the Inhibition Zone, S. mutans (S. mutans (ATCC: 25175); [5]) | Diameter of the Inhibition Zone, K. pneumonia [1] | Diameter of the Inhibition Zone, P. aeruginosa [2] | Diameter of the Inhibition Zone, E. coli (E. coli (ATCC: 3008)) | MIC (S. aureus) | zone of inhibition at 15000 µg/mL (S. mutans (ATCC: 25175); [5]) | melting point | other results |
| --- | --- | --- | --- | --- | --- | --- | --- | --- | --- |
| O=c1[nH]c(-c2ccc(Cl)cc2)ccc1-c1nc2ccccc2s1 [Compound 12a, 3-(Benzo[d]thiazol-2-yl)-6-(4-chlorophenyl)pyridin-2(1H)-one] | 19.6 ± 0.6 mm | - | - | - | - | 369 µM (≈ 125 µg/mL) |  |  | IC50 [3]: 83.6 µM; inhibition at 0.1 µg/mL [3]: 11%; inhibition at 1 µg/mL [3]: 27%; inhibition at 10 µg/mL [3]: 44%; inhibition at 100 µg/mL [3]: 58% |
| Cc1ccc(S(=O)(=O)NNC(=O)/C(=C/c2ccc(F)cc2)c2nc3ccccc3s2)cc1 [Compound 14a] | 19.3 ± 0.6 mm |  | - | - | - | 1070 µM (≈ 500 µg/mL) | 18.3 ± 0.6 mm | 201 to 202 °C | zone of inhibition at 15000 µg/mL [4]: 20.6 ± 0.6 mm; MIC (S. mutans; [6]): 2140 µM (≈ 1000 µg/mL) |
| Cc1ccc(NC(=O)c2cc(-c3nc4ccccc4s3)c(=O)n(NS(=O)(=O)c3ccc(Cl)cc3)c2N)cc1 [Compound 6c, 2-Amino-5-(benzo[d]thiazole-2-yl)-1-(4-chlorophenylsulfonamido)-6-oxo-N-(p-tolyl)-1,6-dihydropyridine-3–carboxamide] | 10.6 ± 0.5 mm |  | - | - | - |  | 10.6 ± 0.5 mm | 302 to 305 °C |  |
| Nc1c(C(=O)Nc2ccc(Cl)cc2)cc(-c2nc3ccccc3s2)c(=O)n1NS(=O)(=O)c1ccc(Cl)cc1 [Compound 6b, 2-Amino-5-(benzo[d]thiazole-2-yl)-N-(4-chlorophenyl)-1-(4-chlorophenylsulfonamido)-6-oxo-1,6-dihydropyridine-3–carboxamide] | 18.3 ± 0.6 mm |  | - | - | - | 1700 µM (≈ 1000 µg/mL) | 15.3 ± 0.5 mm | 334 to 336 °C | MIC (S. mutans; [6]): 1700 µM (≈ 1000 µg/mL) |
| O=c1[nH]c(-c2ccc(Br)cc2)ccc1-c1nc2ccccc2s1 [Compound 12b, 3-(Benzo[d]thiazol-2-yl)-6-(4-bromophenyl)pyridin-2(1H)-one] | 17.6 ± 0.6 mm | - | - | - | - | 2610 µM (≈ 1000 µg/mL) |  | 345 to 346 °C |  |
| Nc1c(C(=O)Nc2ccccc2)cc(-c2nc3ccccc3s2)c(=O)n1NS(=O)(=O)c1ccc(Cl)cc1 [Compound 6a, 2-Amino-5-(benzo[d]thiazole-2-yl)-1-(4-chlorophenylsulfonamido)-6-oxo-N-phenyl-1,6-dihydropyridine-3–carboxamide] | 19.6 ± 0.6 mm |  | ^a - | - | - | 906 µM (≈ 500 µg/mL) | 12.3 ± 0.6 mm |  |  |
| Cc1ccc(S(=O)(=O)NNC(=O)/C(=N/Nc2ccc(Cl)cc2)c2nc3ccccc3s2)cc1 [Compound 19d, N′-(2-(Benzo[d]thiazol-2-yl)-2-(2-(4-chlorophenyl)hydrazono)acetyl)-4-methylbenzenesulfono-hydrazide] |  | - | - |  | - |  |  | 280 to 281 °C | Diameter of the Inhibition Zone, S. aureus (S. aureus (ATCC: 6538); [5]): -; zone of inhibition at 15000 µg/mL [2]: 21.6 ± 0.6 mm; MIC (P. aeruginosa): 500 µM (≈ 250 µg/mL) |
| Cc1ccc(NN=C(C(=O)NNS(=O)(=O)c2ccccc2)c2nc3ccccc3s2)cc1 [Compound 19c, N′-(2-(Benzo[d]thiazol-2-yl)-2-(2-(4-methylphenyl)hydrazono)acetyl)benzene-sulfonohydrazide] | 11 ± 1 mm | - | - |  | - |  |  | 262 to 263 °C | zone of inhibition at 15000 µg/mL [2]: 16 ± 1 mm; zone of inhibition at 15000 µg/mL [4]: 11.6 ± 0.5 mm; MIC (P. aeruginosa): 2150 µM (≈ 1000 µg/mL) |
| CC1(C)S[C@@H]2[C@H](NC(=O)[C@H](N)c3ccccc3)C(=O)N2[C@H]1C(=O)O [Ampicillin, reference compound] |  |  |  |  |  | 179 µM (≈ 62.5 µg/mL) |  |  | zone of inhibition at 15000 µg/mL (S. aureus (ATCC: 6538); 24 h): 22 ± 0.1 mm; zone of inhibition at 15000 µg/mL (S. mutans (ATCC: 25175); 24 h): 30 ± 0.5 mm; MIC (S. mutans): 179 µM (≈ 62.5 µg/mL) |
| COc1ccc(-c2ccc(-c3nc4ccccc4s3)c(=O)[nH]2)cc1 [Compound 12c, 3-(Benzo[d]thiazol-2-yl)-6-(4-methoxyphenyl)pyridin-2(1H)-one] | 15.6 ± 0.5 mm |  | - | - | - |  | 11.3 ± 0.5 mm |  |  |
| O=C(NNS(=O)(=O)c1ccccc1)/C(=N/Nc1ccccc1)c1nc2ccccc2s1 [Compound 19a, N′-(2-(Benzo[d]thiazol-2-yl)-2-(2-phenylhydrazono)acetyl)benzenesulfono-hydrazide] |  | - | - | - | - |  |  | 246 to 248.6 °C | Diameter of the Inhibition Zone, S. aureus (S. aureus (ATCC: 6538); [5]): -; zone of inhibition at 15000 µg/mL [4]: 10.3 ± 0.5 mm |
| O=C(NNS(=O)(=O)c1ccccc1)C(=NNc1ccc(Cl)cc1)c1nc2ccccc2s1 [Compound 19b, N′-(2-(Benzo[d]thiazol-2-yl)-2-(2-(4-chlorophenyl)hydrazono)acetyl)benzene-sulfonohydrazide] | 11.6 ± 0.5 mm | - | - | - | - |  |  | 265 to 267 °C |  |
| Cc1ccc(N/N=C(/C(=O)NNS(=O)(=O)c2ccc(C)cc2)c2nc3ccccc3s2)cc1 [Compound 19e, N′-(2-(Benzo[d]thiazol-2-yl)-2-(2-(4-methylphenyl)hydrazono)acetyl)-4-methylbenzenesulfono-hydrazide] |  | - | - | - | - |  |  | 285 to 286 °C | Diameter of the Inhibition Zone, S. aureus (S. aureus (ATCC: 6538); [5]): - |
| C[C@@H]1[C@H](O)[C@@H](C)/C=C/C=C/CC/C=C/C=C/C=C/C=C/C(O[C@H]2O[C@H](C)[C@@H](O)[C@H](N)[C@@H]2O)CC2O[C@](O)(CC(O)C(O)CCC(O)CC(O)CC(O)CC(=O)O[C@H]1C)CC(O)C2C(=O)O (stereo partly drawn) [Nystatin, reference compound] |  |  |  |  |  |  |  |  | Diameter of the Inhibition Zone, C. albicans [4]: 21.0 ± 0.5 mm |
| Cc1ccc(/C=C(/C(=O)NNS(=O)(=O)c2ccc(C)cc2)c2nc3ccccc3s2)cc1 [Compound 14c, N-(2-(Benzo[d]thiazole-2-yl)-3-(p-tolyl)acryloyl)-4-methylbenzene-sulfonohydrazide] | 30.3 ± 0.6 mm |  | - | - | - | 135 µM (≈ 62.6 µg/mL) | 20.3 ± 0.6 mm | 195 to 196.5 °C | zone of inhibition at 15000 µg/mL [4]: 11.3 ± 0.5 mm; MIC (S. mutans; [6]): 539 µM (≈ 250 µg/mL); IC50 [3]: 56.4 µM; inhibition at 0.1 µg/mL [3]: 8.6%; inhibition at 1 µg/mL [3]: 21%; inhibition at 10 µg/mL [3]: 46%; inhibition at 100 µg/mL [3]: 59% |
